In patent publication US20040241114A1, “Hair Care and Nail Care Compositions Based on Ion-Pair Delivery System for Gender and Ethnic Selective Applications” (priority 2003, published 2004):

What was measured:
Type in all cases: physicochemical
Solubility in water = experiment: Solubility in water
Text: The ion-pair compositions thus formed are not just physical mixtures of the two compositions that are combined in an ion-pair mode to form such ion-pair compositions. Such ion-pair compositions are discreet chemical entities. For example, the combination of niacinamide with N-Acetyl-Cysteine results in the formation of ion-pair complex, Niacinamide N-Acetyl Cysteinate. […] Niacinamide N-Acetyl-Cysteinate, the ion-pair that is produced from the combination of the above two compositions is a new ingredient properties of which are very different from that of the above two compositions, which shall be described elsewhere.

[1] = Stability of water solution
pH of 1% water solution = experiment: pH of 1% water solution

| SMILES | solubility in water (Solubility in water) [%] | stability of water solution [1] | pH of 1% water solution (pH of 1% water solution) |
| --- | --- | --- | --- |
| CC(=O)N[C@@H](CS)C(=O)O [N-Acetyl-Cysteine] | > 20 | poor | 3.5 |
| NC(=O)c1cccnc1 [niacinamide] | 50 | good | 6.3 |
